Results taken from ChEMBL document CHEMBL3108720, “Polygonumosides A-D, stilbene derivatives from processed roots of Polygonum multiflorum” (J Nat Prod, 2014).

Test system: Radical scavenging activity
Assay: Antioxidant activity of the compound assessed as DPPH free radical scavenging activity after 30 mins
Assay type: functional

SMILES | IC50
OC[C@H]1O[C@@H](Oc2c(O)cc(O)cc2[C@H](O)[C@@H](c2ccc(O)cc2)c2c(O)cc(O)c(O[C@@H]3O[C@H](CO)[C@@H](O)[C@H](O)[C@H]3O)c2/C=C/c2ccc(O)cc2)[C@H](O)[C@@H](O)[C@@H]1O | > 2000 µM
OC[C@H]1O[C@@H](Oc2c(O)cc(O)cc2[C@@H](O)[C@H](c2ccc(O)cc2)c2c(O)cc(O)c(O[C@@H]3O[C@H](CO)[C@@H](O)[C@H](O)[C@H]3O)c2/C=C/c2ccc(O)cc2)[C@H](O)[C@@H](O)[C@@H]1O | > 2000 µM
O=c1oc2cc(O[C@@H]3O[C@H](CO)[C@@H](O)[C@H](O)[C@H]3O)c3c(c2c2c(O)c(O)c(O)cc12)O[C@@H](c1ccc(O)cc1)C3 | 569 µM
O=c1oc2cc(O[C@@H]3O[C@H](CO)[C@@H](O)[C@H](O)[C@H]3O)c3c(c2c2c(O)c(O)c(O)cc12)O[C@H](c1ccc(O)cc1)C3 | 298 µM
